# Values joined by “and” are separate entries in the source; they are usually repeats but may differ in a detail not shown here. Equal entries are not always repeated.
# What was measured:
# Assay in all cases: Sensitivity to antimicrobial agents, Kirby-Bauer disk methodology
# Assay type in all cases: cell-based
# S. uberis = conditions: Southern Region, clinical bovine mastitis isolates
# Protocol: (§1) The following antimicrobial agents were assessed (Oxoid Ltd. Hampshire, England): • Amoxicillin/clavulanic acid (AMC), • Trimethropin/sulfamethoxazole (SXT), • Cefotaxime (CTX), • Gentamicin (GN) and • Neomycin (NE).
# (§2) The bacterial specimens were analyzed according to the Kirby-Bauer disk methodology following the recommendations provided by the guidelines of the Clinical Laboratory Standards Institute (CLSI 2012b) and the BSAC standard (Andrews and Trial 2008).
# (§3) The microorganisms were incubated in Mueller Hinton agar plates at 35° C. for 18-24 hours in aerobics atmosphere. As quality control E. coli (ATCC 25922) and Staphylococcus aureus (25923) were used. The CLSI cut-off points were used to interpret the susceptibility of all microbial agents. For the determination of the cut-off point value for neomycin (NE), the BSAC standard was applied.
# CNS = conditions: clinical bovine mastitis isolates
# Protocol: as §1, §2, §3
# S. aureus = conditions: Southern Region, clinical bovine mastitis isolates
# Protocol: as §1, §2, §3
# E. coli = conditions: Central Region, clinical bovine mastitis isolates
# Protocol: as §1, §2, §3
Compound,Resistant (%) (S. uberis),Resistant N° (S. uberis),Resistant (%) (CNS; Central Region),Resistant N° (CNS; Central Region),Resistant (%) (CNS; Southern Region),Resistant N° (CNS; Southern Region),Resistant (%) (S. aureus),Resistant N° (S. aureus),Resistant (%) (E. coli),Resistant N° (E. coli),Resistant (%) (S. uberis; listed as CTK)
Trimethropin/sulfamethoxazole [SXT],0.0%,0,0.0,0,0.0,0,3.6,1,15.4%,2,–
"NC[C@@H]1O[C@H](O[C@H]2[C@@H](O)[C@H](O[C@@H]3[C@@H](O)[C@H](N)C[C@H](N)[C@H]3O[C@H]3O[C@H](CN)[C@@H](O)[C@H](O)[C@H]3N)O[C@@H]2CO)[C@H](N)[C@@H](O)[C@@H]1O [Ne, Neomycin]",52% and 52.4%,11,15.4,2,5.9,1,21.4,6,54% and 53.8%,7,–
Amoxicillin/clavulanic acid [AMC],0.0%,0,0.0,0,0.0,0,7.1,2,23.0%,3,–
Gentamicin [GN],43% and 42.9%,9,0.0,0,0.0,0,0.0,0,15.4%,2,–
"CO/N=C(\C(=O)N[C@@H]1C(=O)N2C(C(=O)O)=C(COC(C)=O)CS[C@H]12)c1csc(N)n1 [CTX, Cefotaxime]",23.8%,5,0.0,0,5.9,1,3.6,1,15.4%,2,24

# Source: US9936705B2, “Biocide formulation for protecting the skin, comprising pentahydrate copper salts and heptahydrate zinc salts” (priority 2014, dated 2018)
